Experimental data: the kinase profiling compilation of Christmann-Franck et al. (2016)

What was measured:
Experiment in all cases: KINOMEscan competition binding
Conditions in all cases: compound 10.0 µM
[1] = tested on: KIT (human), P10721 [D816V]
PAK6 (human) = PAK6 (human) (UniProt Q9NQU5)
RIPK2 (human) = RIPK2 (human) (UniProt O43353)
PIK3CB (human) = PIK3CB (human) (UniProt P42338)
[2] = tested on: PIK3CA (human), P42336 [H1047Y]
[3] = tested on: PIK3CA (human), P42336 [Q546K]
EPHA6 (human) = EPHA6 (human) (UniProt Q9UF33)
RPS6KA4 KD1 (human) = RPS6KA4 KD1 (human) (UniProt O75676)
MYLK3 (human) = MYLK3 (human) (UniProt Q32MK0)
[4] = tested on: PIK3CA (human), P42336 [E545A]
CDK8 (human) = CDK8 (human) (UniProt P49336)
MAP3K1 (human) = MAP3K1 (human) (UniProt Q13233)
PIK3C2B (human) = PIK3C2B (human) (UniProt O00750)
RAF1 (human) = RAF1 (human) (UniProt P04049)
RAF1 (human), sequence (P04049 whole entry, looked up): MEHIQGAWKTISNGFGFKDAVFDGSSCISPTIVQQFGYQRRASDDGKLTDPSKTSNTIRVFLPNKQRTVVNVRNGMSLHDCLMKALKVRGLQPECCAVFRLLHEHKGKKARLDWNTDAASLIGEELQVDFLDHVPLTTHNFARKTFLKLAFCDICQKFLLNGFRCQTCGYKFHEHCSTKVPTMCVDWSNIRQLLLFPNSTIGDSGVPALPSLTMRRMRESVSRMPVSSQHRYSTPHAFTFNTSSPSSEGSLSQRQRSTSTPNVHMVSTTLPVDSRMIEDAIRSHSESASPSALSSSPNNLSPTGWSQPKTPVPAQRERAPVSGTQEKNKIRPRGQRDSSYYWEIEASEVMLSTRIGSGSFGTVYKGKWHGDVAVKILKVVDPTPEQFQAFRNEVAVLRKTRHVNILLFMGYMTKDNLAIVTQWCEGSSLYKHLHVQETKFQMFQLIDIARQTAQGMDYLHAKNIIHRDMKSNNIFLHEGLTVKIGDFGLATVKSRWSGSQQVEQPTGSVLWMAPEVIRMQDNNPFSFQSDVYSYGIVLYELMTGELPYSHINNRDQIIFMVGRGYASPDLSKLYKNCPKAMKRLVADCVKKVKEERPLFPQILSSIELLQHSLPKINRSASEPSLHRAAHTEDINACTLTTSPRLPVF

NEK7 (human) = NEK7 (human) (UniProt Q8TDX7)
EPHA4 (human) = EPHA4 (human) (UniProt P54764)
TXK (human) = TXK (human) (UniProt P42681)
PAK4 (human) = PAK4 (human) (UniProt O96013)
FGFR1 (human) = FGFR1 (human) (UniProt P11362)
ACVR2B (human) = ACVR2B (human) (UniProt Q13705)
MAP2K6 (human) = MAP2K6 (human) (UniProt P52564)
RIOK2 (human) = RIOK2 (human) (UniProt Q9BVS4)
STK4 (human) = STK4 (human) (UniProt Q13043)
DCLK1 (human) = DCLK1 (human) (UniProt O15075)
[5] = target: JAK2 JH1 catalytic (human) (UniProt O60674)
PLK4 (human) = PLK4 (human) (UniProt O00444)
HIPK2 (human) = HIPK2 (human) (UniProt Q9H2X6)
STK24 (human) = STK24 (human) (UniProt Q9Y6E0)
STK24 (human), sequence (Q9Y6E0 whole entry, looked up): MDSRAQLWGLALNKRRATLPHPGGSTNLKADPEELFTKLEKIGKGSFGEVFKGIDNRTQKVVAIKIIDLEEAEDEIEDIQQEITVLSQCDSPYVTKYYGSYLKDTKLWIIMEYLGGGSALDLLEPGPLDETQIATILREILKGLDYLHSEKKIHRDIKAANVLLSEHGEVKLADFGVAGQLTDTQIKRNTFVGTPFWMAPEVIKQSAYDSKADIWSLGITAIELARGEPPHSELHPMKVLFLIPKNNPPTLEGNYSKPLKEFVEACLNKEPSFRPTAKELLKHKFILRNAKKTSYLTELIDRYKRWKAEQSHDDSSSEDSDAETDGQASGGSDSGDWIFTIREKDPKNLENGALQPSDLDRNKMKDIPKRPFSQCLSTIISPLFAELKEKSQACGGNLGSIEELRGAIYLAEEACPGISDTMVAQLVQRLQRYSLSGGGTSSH

STK17B (human) = STK17B (human) (UniProt O94768)
MAP4K1 (human) = MAP4K1 (human) (UniProt Q92918)
MLTK (human) = MLTK (human) (UniProt Q9NYL2)
TYRO3 (human) = TYRO3 (human) (UniProt Q06418)
SIK3 (human) = SIK3 (human) (UniProt Q9Y2K2)
SIK3 (human), sequence (Q9Y2K2 whole entry, looked up): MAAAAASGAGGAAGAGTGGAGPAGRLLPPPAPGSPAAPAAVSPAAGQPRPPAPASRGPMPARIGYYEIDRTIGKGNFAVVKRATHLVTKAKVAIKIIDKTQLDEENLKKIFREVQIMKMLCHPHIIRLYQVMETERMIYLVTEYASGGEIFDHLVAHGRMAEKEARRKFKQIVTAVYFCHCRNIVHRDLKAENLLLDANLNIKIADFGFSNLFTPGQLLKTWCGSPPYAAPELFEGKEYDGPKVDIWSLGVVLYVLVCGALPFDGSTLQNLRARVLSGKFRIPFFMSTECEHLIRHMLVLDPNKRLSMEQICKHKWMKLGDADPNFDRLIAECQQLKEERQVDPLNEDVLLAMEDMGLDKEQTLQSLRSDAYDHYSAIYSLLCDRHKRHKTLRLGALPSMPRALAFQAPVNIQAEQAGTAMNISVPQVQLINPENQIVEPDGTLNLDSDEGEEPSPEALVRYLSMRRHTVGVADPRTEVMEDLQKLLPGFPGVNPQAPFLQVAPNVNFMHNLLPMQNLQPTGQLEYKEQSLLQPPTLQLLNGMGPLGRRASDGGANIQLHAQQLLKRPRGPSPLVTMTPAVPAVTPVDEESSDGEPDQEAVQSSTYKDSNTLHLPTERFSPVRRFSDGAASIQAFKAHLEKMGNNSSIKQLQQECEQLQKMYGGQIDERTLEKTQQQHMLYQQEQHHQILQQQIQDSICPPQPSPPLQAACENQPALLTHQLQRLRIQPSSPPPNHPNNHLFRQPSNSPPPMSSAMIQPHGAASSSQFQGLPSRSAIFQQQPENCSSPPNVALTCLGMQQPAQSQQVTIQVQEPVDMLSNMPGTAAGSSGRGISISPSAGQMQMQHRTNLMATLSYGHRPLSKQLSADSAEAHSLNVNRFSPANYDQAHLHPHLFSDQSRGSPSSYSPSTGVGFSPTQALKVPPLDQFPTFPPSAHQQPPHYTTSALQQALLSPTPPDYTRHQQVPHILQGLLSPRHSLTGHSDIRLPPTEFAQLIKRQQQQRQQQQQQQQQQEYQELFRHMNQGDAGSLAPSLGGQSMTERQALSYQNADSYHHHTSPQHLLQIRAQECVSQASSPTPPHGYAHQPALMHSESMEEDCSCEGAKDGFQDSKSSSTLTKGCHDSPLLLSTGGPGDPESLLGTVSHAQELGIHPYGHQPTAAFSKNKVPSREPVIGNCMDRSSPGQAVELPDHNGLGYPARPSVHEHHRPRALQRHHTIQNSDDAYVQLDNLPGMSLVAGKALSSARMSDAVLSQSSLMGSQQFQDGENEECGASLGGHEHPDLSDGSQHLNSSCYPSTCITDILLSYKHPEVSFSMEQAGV

DMPK (human) = DMPK (human) (UniProt Q09013)
FER (human) = FER (human) (UniProt P16591)
YSK4 (human) = YSK4 (human) (UniProt Q56UN5)
MARK3 (human) = MARK3 (human) (UniProt P27448)
ACVR1 (human) = ACVR1 (human) (UniProt Q04771)
ACVR1 (human), sequence (Q04771 whole entry, looked up): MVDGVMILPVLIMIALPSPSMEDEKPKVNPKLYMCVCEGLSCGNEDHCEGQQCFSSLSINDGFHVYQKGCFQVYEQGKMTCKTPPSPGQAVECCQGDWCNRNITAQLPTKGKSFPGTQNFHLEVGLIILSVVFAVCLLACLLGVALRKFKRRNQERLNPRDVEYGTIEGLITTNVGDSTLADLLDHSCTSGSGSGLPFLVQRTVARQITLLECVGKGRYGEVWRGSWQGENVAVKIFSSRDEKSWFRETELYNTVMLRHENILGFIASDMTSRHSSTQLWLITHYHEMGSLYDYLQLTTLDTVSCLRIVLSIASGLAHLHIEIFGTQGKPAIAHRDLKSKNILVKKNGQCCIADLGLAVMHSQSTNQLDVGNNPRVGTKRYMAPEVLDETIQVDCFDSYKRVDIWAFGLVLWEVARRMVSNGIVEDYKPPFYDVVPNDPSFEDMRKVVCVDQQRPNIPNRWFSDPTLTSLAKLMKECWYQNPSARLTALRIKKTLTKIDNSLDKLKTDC

IGF1R (human) = IGF1R (human) (UniProt P08069)
CASK (human) = CASK (human) (UniProt O14936)

PIK3CB (human), sequence (P42338 whole entry, looked up): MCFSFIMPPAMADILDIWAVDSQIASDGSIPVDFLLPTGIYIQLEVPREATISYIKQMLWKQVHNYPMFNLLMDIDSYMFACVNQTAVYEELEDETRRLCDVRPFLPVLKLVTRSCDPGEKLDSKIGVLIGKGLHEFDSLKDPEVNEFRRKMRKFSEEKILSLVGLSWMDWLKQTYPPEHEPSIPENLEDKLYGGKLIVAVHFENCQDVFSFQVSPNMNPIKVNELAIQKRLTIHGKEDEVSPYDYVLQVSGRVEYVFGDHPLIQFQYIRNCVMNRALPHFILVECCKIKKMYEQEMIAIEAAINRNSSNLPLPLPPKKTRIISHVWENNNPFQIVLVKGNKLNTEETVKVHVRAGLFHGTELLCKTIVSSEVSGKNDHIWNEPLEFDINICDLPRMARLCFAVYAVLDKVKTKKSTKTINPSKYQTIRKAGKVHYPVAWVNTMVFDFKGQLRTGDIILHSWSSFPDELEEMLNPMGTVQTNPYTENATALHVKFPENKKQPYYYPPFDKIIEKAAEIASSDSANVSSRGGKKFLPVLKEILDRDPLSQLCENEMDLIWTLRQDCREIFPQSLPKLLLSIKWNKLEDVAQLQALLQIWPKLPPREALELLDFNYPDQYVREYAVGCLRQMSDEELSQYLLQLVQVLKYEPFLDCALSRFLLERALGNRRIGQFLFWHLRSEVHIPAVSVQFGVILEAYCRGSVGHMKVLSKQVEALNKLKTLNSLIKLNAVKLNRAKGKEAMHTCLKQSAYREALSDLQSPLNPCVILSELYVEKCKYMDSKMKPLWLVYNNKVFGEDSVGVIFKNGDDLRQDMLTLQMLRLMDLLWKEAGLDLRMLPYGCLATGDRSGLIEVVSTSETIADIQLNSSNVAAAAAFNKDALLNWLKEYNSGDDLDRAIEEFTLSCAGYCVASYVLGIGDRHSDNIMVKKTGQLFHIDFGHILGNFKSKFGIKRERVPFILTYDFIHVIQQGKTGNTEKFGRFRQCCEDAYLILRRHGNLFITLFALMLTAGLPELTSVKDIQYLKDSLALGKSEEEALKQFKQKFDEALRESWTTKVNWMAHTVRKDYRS
PIK3CA (human), P42336 [Q546K], sequence (P42336 whole entry Q546K, looked up): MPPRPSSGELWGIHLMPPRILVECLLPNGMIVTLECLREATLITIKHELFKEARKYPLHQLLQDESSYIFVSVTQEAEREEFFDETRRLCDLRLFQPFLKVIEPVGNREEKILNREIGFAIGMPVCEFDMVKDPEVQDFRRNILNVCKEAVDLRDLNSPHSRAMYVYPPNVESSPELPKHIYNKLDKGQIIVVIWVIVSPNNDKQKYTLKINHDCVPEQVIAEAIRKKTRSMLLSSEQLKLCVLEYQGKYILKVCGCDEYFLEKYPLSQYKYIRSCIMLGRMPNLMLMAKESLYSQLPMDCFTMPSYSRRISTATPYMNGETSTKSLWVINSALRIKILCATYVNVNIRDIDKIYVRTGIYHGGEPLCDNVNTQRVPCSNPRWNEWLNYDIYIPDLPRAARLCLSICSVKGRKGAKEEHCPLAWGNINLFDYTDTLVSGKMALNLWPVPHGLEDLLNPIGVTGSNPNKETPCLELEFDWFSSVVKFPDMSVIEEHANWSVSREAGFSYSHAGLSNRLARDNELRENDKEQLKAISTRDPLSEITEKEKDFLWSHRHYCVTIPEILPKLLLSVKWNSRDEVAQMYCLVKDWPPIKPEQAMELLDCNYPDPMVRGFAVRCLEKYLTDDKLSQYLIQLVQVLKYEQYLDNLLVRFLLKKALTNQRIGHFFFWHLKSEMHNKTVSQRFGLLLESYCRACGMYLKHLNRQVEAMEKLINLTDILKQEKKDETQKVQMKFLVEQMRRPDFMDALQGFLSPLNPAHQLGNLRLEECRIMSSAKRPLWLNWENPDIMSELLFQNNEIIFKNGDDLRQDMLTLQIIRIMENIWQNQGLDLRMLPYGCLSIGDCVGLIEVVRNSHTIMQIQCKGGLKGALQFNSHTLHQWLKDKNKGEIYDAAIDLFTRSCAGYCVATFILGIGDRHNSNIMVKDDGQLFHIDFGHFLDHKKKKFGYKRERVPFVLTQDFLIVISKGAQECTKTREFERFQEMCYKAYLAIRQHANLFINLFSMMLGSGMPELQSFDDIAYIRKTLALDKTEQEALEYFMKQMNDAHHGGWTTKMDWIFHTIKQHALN

| Compound | kinase still bound, per cent of control [1] [%] | kinase still bound, per cent of control (PAK6 (human)) [%] | kinase still bound, per cent of control (RIPK2 (human)) [%] | kinase still bound, per cent of control (PIK3CB (human)) [%] | kinase still bound, per cent of control [2] [%] | kinase still bound, per cent of control [3] [%] | kinase still bound, per cent of control (EPHA6 (human)) [%] | kinase still bound, per cent of control (RPS6KA4 KD1 (human)) [%] | kinase still bound, per cent of control (MYLK3 (human)) [%] | kinase still bound, per cent of control [4] [%] | kinase still bound, per cent of control (CDK8 (human)) [%] | kinase still bound, per cent of control (MAP3K1 (human)) [%] | kinase still bound, per cent of control (PIK3C2B (human)) [%] | kinase still bound, per cent of control (RAF1 (human)) [%] | kinase still bound, per cent of control (NEK7 (human)) [%] | kinase still bound, per cent of control (EPHA4 (human)) [%] | kinase still bound, per cent of control (TXK (human)) [%] | kinase still bound, per cent of control (PAK4 (human)) [%] | kinase still bound, per cent of control (FGFR1 (human)) [%] | kinase still bound, per cent of control (ACVR2B (human)) [%] | also measured |
| --- | --- | --- | --- | --- | --- | --- | --- | --- | --- | --- | --- | --- | --- | --- | --- | --- | --- | --- | --- | --- | --- |
| CN(C)C/C=C/C(=O)Nc1cccc(Nc2ncc3c(n2)N(C)c2ccccc2C(=O)N3C)c1 | 7.4 | 66 | 18 | 32 | 51 | 30 | 91 | 59 | 100 | 67 | 100 | 72 | 56 | 96 | 100 | 79 | 11 | 61 | 3.5 | 9.4 | kinase still bound, per cent of control (MAP2K6 (human)): 95%; kinase still bound, per cent of control (RIOK2 (human)): 79%; kinase still bound, per cent of control (STK4 (human)): 49%; kinase still bound, per cent of control (DCLK1 (human)): 4%; kinase still bound, per cent of control [5]: 0.75%; kinase still bound, per cent of control (PLK4 (human)): 0%; kinase still bound, per cent of control (HIPK2 (human)): 89%; kinase still bound, per cent of control (STK24 (human)): 98%; kinase still bound, per cent of control (STK17B (human)): 100%; kinase still bound, per cent of control (MAP4K1 (human)): 38%; kinase still bound, per cent of control (MLTK (human)): 79%; kinase still bound, per cent of control (TYRO3 (human)): 100%; kinase still bound, per cent of control (SIK3 (human)): 20%; kinase still bound, per cent of control (DMPK (human)): 32%; kinase still bound, per cent of control (FER (human)): 100%; kinase still bound, per cent of control (YSK4 (human)): 6.2%; kinase still bound, per cent of control (MARK3 (human)): 10%; kinase still bound, per cent of control (ACVR1 (human)): 45%; kinase still bound, per cent of control (IGF1R (human)): 100%; kinase still bound, per cent of control (CASK (human)): 39% |
| Cc1ccc(NC(=O)c2cccc(C(C)(C)C#N)c2)cc1Nc1ccc2ncn(C)c(=O)c2c1 | 16 | 84 | 7 | 100 | 100 | 88 | 0 | 100 | 100 | 89 | 22 | 76 | 100 | 2.3 | 96 | 0 | 5.6 | 72 | 59 | 100 | kinase still bound, per cent of control (MAP2K6 (human)): 100%; kinase still bound, per cent of control (RIOK2 (human)): 100%; kinase still bound, per cent of control (STK4 (human)): 100%; kinase still bound, per cent of control (DCLK1 (human)): 97%; kinase still bound, per cent of control [5]: 100%; kinase still bound, per cent of control (PLK4 (human)): 87%; kinase still bound, per cent of control (HIPK2 (human)): 73%; kinase still bound, per cent of control (STK24 (human)): 79%; kinase still bound, per cent of control (STK17B (human)): 100%; kinase still bound, per cent of control (MAP4K1 (human)): 63%; kinase still bound, per cent of control (MLTK (human)): 6.5%; kinase still bound, per cent of control (TYRO3 (human)): 100%; kinase still bound, per cent of control (SIK3 (human)): 100%; kinase still bound, per cent of control (DMPK (human)): 90%; kinase still bound, per cent of control (FER (human)): 100%; kinase still bound, per cent of control (YSK4 (human)): 0.85%; kinase still bound, per cent of control (MARK3 (human)): 89%; kinase still bound, per cent of control (ACVR1 (human)): 100%; kinase still bound, per cent of control (IGF1R (human)): 95%; kinase still bound, per cent of control (CASK (human)): 96% |
